Reference: PMC10294832, “Investigation of Naphthyl–Polyamine Conjugates as Antimicrobials and Antibiotic Enhancers” (Antibiotics, 2023)
pIC50: −log10 of the molar value. Converted amounts (≈) assume the structure as drawn. “And” between values parts separate entries of the source, which are not always exact repeats. Identical values can stand only once. Like-named read-outs stand apart in the source and are kept apart here.

Legend:
Cytotoxicity assay = type: cell-based, human; settings: human, HEK293 human embryonic kidney cells, concentration at 50% cytotoxicity on HEK293 cells; mean (n = 2)
Description: Cytotoxicity assays were conducted using the protocols previously reported.

[1] = system: P. aeruginosa (PAO1 or ATCC 27853); experiment: Antimicrobial MIC, P. aeruginosa; type: cell-based; settings: Pseudomonas aeruginosa
Description: (§1) The susceptibility of bacterial strains S. aureus (ATCC 25,923 or 29213), E. coli (ATCC 25922), and P. aeruginosa (ATCC 27853) to antibiotics and compounds was determined according to previously reported protocols. Additional antimicrobial evaluation against MRSA (ATCC 43300), Klebsiella pneumoniae (ATCC 700603), Acinetobacter baumannii (ATCC 19606), Candida albicans (ATCC 90028), and Cryptococcus neoformans (ATCC 208821) was undertaken at the Community for Open Antimicrobial Drug Discovery at The University of Queensland (Australia) according to their standard protocols as reported previously.

E. coli (ATCC 25922) [2] = experiment: Antimicrobial MIC, E. coli; type: cell-based, Escherichia coli; settings: Escherichia coli, ATCC25922, E. coli (ATCC 25922); mean (n = 2)
Description: as §1

[3] = system: A. baumannii (ATCC 19606); experiment: Antimicrobial MIC, A. baumannii; type: cell-based, Acinetobacter baumannii; settings: Acinetobacter baumannii, ATCC19606, A. baumannii (ATCC 19606); mean (n = 2)
Description: as §1

human red blood cells = experiment: Hemolytic assay; type: cell-based; settings: concentration at 10% hemolytic activity on human red blood cells; mean (n = 2)
Description: Hemolysis assays were conducted using the protocols previously reported.

C. albicans (ATCC 90028) = experiment: Antifungal MIC, C. albicans; type: cell-based; settings: Candida albicans, ATCC90028, mean (n = 2)
Description: as §1

[4] = system: S. aureus (ATCC 25,923 or ATCC 29213); experiment: Antimicrobial MIC, S. aureus; type: cell-based, Staphylococcus aureus; settings: Staphylococcus aureus, mean (n = 3)
Description: as §1

[5] = system: C. neoformans (ATCC 208821); experiment: Antifungal MIC, C. neoformans; type: cell-based, Cryptococcus neoformans; settings: Cryptococcus neoformans, ATCC208821, C. neoformans (ATCC 208821); mean (n = 2)
Description: as §1

[6] = system: K. pneumoniae (ATCC 700603); experiment: Antimicrobial MIC, K. pneumoniae; type: cell-based; settings: Klebsiella pneumoniae, ATCC700603, mean (n = 2)
Description: as §1

MRSA (ATCC 43300) = experiment: Antimicrobial MIC, MRSA; type: cell-based, methicillin-resistant Staphylococcus aureus; settings: Staphylococcus aureus, read-out: MIC MRSA
Description: as §1

E. coli (ATCC 25922) [7] = experiment: Enhancement of erythromycin activity; type: cell-based, Escherichia coli; settings: for Eryth/E.c: concentration required to restore erythromycin activity (combination MIC): erythromycin fixed at 10.9 µM (8 µg/mL), E. coli (ATCC 25922); for Eryth/E.c fold change: ratio between intrinsic MIC of test compound and combination MIC, erythromycin 10.9 µM, E. coli
Description: Restoring enhancer concentrations were determined using previously reported protocols.

[8] = system: P. aeruginosa (ATCC 27853); experiment: Enhancement of doxycycline activity; type: cell-based, Pseudomonas aeruginosa; settings: for Dox/P.a: concentration required to restore doxycycline activity (combination MIC): doxycycline fixed at 4.5 µM (2 µg/mL); for Dox/P.a: concentration required to restore doxycycline activity (combination MIC) / Concentration of test compound required to restore doxycycline activity: P. aeruginosa (ATCC 27853); for Dox/P.a fold change: ratio between intrinsic MIC of test compound and combination MIC, doxycycline 4.5 µM, P. aeruginosa
[9] = P. aeruginosa (PAO1 or ATCC 27853), mean (n = 3), read-out: MIC P. a
[10] = MRSA (ATCC 43300), mean (n = 2)

| SMILES | pIC50 (Cytotoxicity assay) | MIC [1, 9] | MIC (E. coli (ATCC 25922) [2]) | MIC [3] | Hemolysis HC10 (human red blood cells) | MIC (C. albicans (ATCC 90028)) | MIC [4] | MIC [5] | MIC [6] | MIC (MRSA (ATCC 43300); [10]) | Eryth/E.c: concentration required to restore erythromycin activity (combination MIC) (E. coli (ATCC 25922) [7]) | Eryth/E.c fold change (E. coli (ATCC 25922) [7]) | Dox/P.a: concentration required to restore doxycycline activity (combination MIC) [8] | Dox/P.a fold change [8] | Concentration of test compound required to restore doxycycline activity ([8]; doxycycline concentration 2 µg/mL) | Concentration of test compound required to restore doxycycline activity ([8]; doxycycline concentration 4 µg/mL) | Concentration of test compound required to restore doxycycline activity ([8]; doxycycline concentration 6 µg/mL) | Concentration of test compound required to restore doxycycline activity ([8]; doxycycline concentration 8 µg/mL) | MIC ([1]; antibiotic alone, P. aeruginosa, read-out: intrinsic MIC against P. aeruginosa) | MIC (MRSA (ATCC 43300)) |
| --- | --- | --- | --- | --- | --- | --- | --- | --- | --- | --- | --- | --- | --- | --- | --- | --- | --- | --- | --- | --- |
| O=C(CCC(=O)Nc1cccc2ccccc12)NCCCNCCCCCCNCCCNC(=O)CCC(=O)Nc1cccc2ccccc12.O=C(O)C(F)(F)F.O=C(O)C(F)(F)F [Compound 18b, N^1,N^6-Bis(3-(4-(naphthalen-1-ylamino)-4-oxobutanamido)propyl)hexane-1,6-diaminium 2,2,2-trifluoroacetate] | < 4.45 | > 200 µM | > 200 µM | > 35.2 µM | >35.2 µM | > 35.2 µM | > 200 µM | > 35.2 µM | > 35.2 µM | > 35.2 µM | 200 µM | 1 fold | 100 µM | > 2 fold | – | – | – | – | – | – |
| OC(Cn1cncn1)(Cn1cncn1)c1ccc(F)cc1F [fluconazole, reference compound] | – | – | – | – | – | 0.4 µM (≈ 0.123 µg/mL) | – | 26 µM (≈ 7.96 µg/mL) | – | – | – | – | – | – | – | – | – | – | – | – |
| O=C(NCCCNCCCCCCCCNCCCNC(=O)c1cccc2ccccc12)c1cccc2ccccc12.O=C(O)C(F)(F)F.O=C(O)C(F)(F)F [Compound 17d, N^1,N^8-Bis(3-(1-naphthamido)propyl)octane-1,8-diaminium 2,2,2-trifluoroacetate] | < 4.39 | > 100 µM | 100 µM | > 40.3 µM | >40.3 µM | > 40.3 µM | 50 µM | > 40.3 µM | > 40.3 µM | > 40.3 µM | 31.5 µM | 3 fold | – | – | – | – | – | – | – | – |
| O=C(CCC(=O)Nc1ccc2ccccc2c1)NCCCNCCCCNCCCNC(=O)CCC(=O)Nc1ccc2ccccc2c1.O=C(O)C(F)(F)F.O=C(O)C(F)(F)F [Compound 20a, N^1,N^4-Bis(3-(4-(naphthalen-2-ylamino)-4-oxobutanamido)propyl)butane-1,4-diaminium 2,2,2-trifluoroacetate] | < 4.44 | 568 µM | 227 µM | > 36.3 µM | >36.3 µM | > 36.3 µM | 57 µM | > 36.3 µM | > 36.3 µM | 18.2 µM | – | – | 28 µM | 20 fold | 28.4 µM | 14.2 µM | 14.2 µM | 3.5 µM | – | – |
| O=C(NCCCNCCCCCCNCCCNC(=O)c1ccc2ccccc2c1)c1ccc2ccccc2c1.O=C(O)C(F)(F)F.O=C(O)C(F)(F)F [Compound 19b, N^1,N^6-Bis(3-(2-naphthamido)propyl)hexane-1,6-diaminium 2,2,2-trifluoroacetate] | < 4.38 | > 130 µM | 130 µM | > 41.7 µM | >41.7 µM | > 41.7 µM | 65.2 µM | 20.9 µM | > 41.7 µM | 41.7 µM | 65.2 µM | 2 fold | 65.2 µM | > 2 fold | – | – | – | – | – | – |
| CC/C(=C(\c1ccccc1)c1ccc(OCCN(C)C)cc1)c1ccccc1 [tamoxifen, reference compound] | 4.62 | – | – | – | – | – | – | – | – | – | – | – | – | – | – | – | – | – | – | – |
| O=C(CCC(=O)Nc1cccc2ccccc12)NCCCNCCCCCCCCCCNCCCNC(=O)CCC(=O)Nc1cccc2ccccc12.O=C(O)C(F)(F)F.O=C(O)C(F)(F)F [Compound 18e, N^1,N^10-Bis(3-(4-(naphthalen-1-ylamino)-4-oxobutanamido)propyl)decane-1,10-diaminium 2,2,2-trifluoroacetate] | < 4.48 | 518 µM | 518 µM | > 33.2 µM | >33.2 µM | > 33.2 µM | 104 µM | 33.2 µM | > 33.2 µM | 33.2 µM | 51.8 µM | 10 fold | 207 µM | 2.5 fold | – | – | – | – | – | – |
| C[C@H]1c2cccc(O)c2C(=O)C2=C(O)[C@]3(O)C(=O)C(C(N)=O)=C(O)[C@@H](N(C)C)[C@@H]3[C@@H](O)[C@@H]21 [doxycycline, reference compound] | – | – | – | – | – | – | – | – | – | – | – | – | – | – | – | – | – | – | 40 µg/mL and 90 µM | – |
| O=C(CCC(=O)Nc1cccc2ccccc12)NCCCNCCCCNCCCNC(=O)CCC(=O)Nc1cccc2ccccc12.O=C(O)C(F)(F)F.O=C(O)C(F)(F)F [Compound 18a, N^1,N^4-Bis(3-(4-(naphthalen-1-ylamino)-4-oxobutanamido)propyl)butane-1,4-diaminium 2,2,2-trifluoroacetate] | – | 568 µM | 568 µM | > 36.3 µM | – | > 36.3 µM | 568 µM | > 36.3 µM | > 36.3 µM | > 36.3 µM | 568 µM | 1 fold | 568 µM | 1 fold | – | – | – | – | – | – |
| O=C(CCC(=O)Nc1ccc2ccccc2c1)NCCCNCCCCCCCCCCNCCCNC(=O)CCC(=O)Nc1ccc2ccccc2c1.O=C(O)C(F)(F)F.O=C(O)C(F)(F)F [Compound 20e, N^1,N^10-Bis(3-(4-(naphthalen-2-ylamino)-4-oxobutanamido)propyl)decane-1,10-diaminium 2,2,2-trifluoroacetate] | < 4.48 | 518 µM | 104 µM | > 33.2 µM | >33.2 µM | > 33.2 µM | 12.9 µM | 16.6 µM | > 33.2 µM | 16.6 µM | 13 µM and 13.0 µM | 8 fold | 104 µM | 5 fold | – | – | – | – | – | – |
| O=C(NCCCNCCCCCCCNCCCNC(=O)c1cccc2ccccc12)c1cccc2ccccc12.O=C(O)C(F)(F)F.O=C(O)C(F)(F)F [Compound 17c, N^1,N^7-Bis(3-(1-naphthamido)propyl)heptane-1,7-diaminium 2,2,2-trifluoroacetate] | < 4.39 | > 256 µM | 256 µM | > 41 µM | >41.0 µM | > 41 µM | 256 µM | > 41 µM | > 41 µM | > 41 µM | 64 µM | 4 fold | 64 µM | – | – | – | – | – | – | – |
| O=C(N[C@H](CO)[C@H](O)c1ccc([N+](=O)[O-])cc1)C(Cl)Cl [chloramphenicol, reference compound] | – | – | – | – | – | – | 1.5 to 3 µM (≈ 0.485 to 0.969 µg/mL) | – | – | – | – | – | – | – | – | – | – | – | – | – |
| CN[C@H](CC(C)C)C(=O)N[C@H]1C(=O)N[C@@H](CC(N)=O)C(=O)N[C@H]2C(=O)N[C@H]3C(=O)N[C@H](C(=O)N[C@H](C(=O)O)c4cc(O)cc(O)c4-c4cc3ccc4O)[C@H](O)c3ccc(c(Cl)c3)Oc3cc2cc(c3O[C@@H]2O[C@H](CO)[C@@H](O)[C@H](O)[C@H]2O[C@H]2C[C@](C)(N)[C@H](O)[C@H](C)O2)Oc2ccc(cc2Cl)[C@H]1O [vancomycin, reference compound] | – | – | – | – | – | – | – | – | – | – | – | – | – | – | – | – | – | – | – | 0.7 µM (≈ 1.01 µg/mL) |
| [H]/N=C(/N)N[C@H]1[C@H](O)[C@@H](O)[C@H](O[C@@H]2O[C@@H](C)[C@](O)(C=O)[C@H]2O[C@@H]2O[C@@H](CO)[C@H](O)[C@@H](O)[C@@H]2NC)[C@@H](N/C(N)=N\[H])[C@@H]1O [streptomycin, reference compound] | – | 21.5 µM (≈ 12.5 µg/mL) | – | – | – | – | 21.5 µM (≈ 12.5 µg/mL) | – | – | – | – | – | – | – | – | – | – | – | – | – |
